Measured values from patent EP2818472A1, “Imidazo[4,5-c]pyridine and pyrrolo[3,2-c]pyridine compounds as G-protein-coupled receptor kinase 5 (GRK5) modulators” (Max-Planck-Gesellschaft zur Förderung der Wissenschaften …, priority 2013, dated 2014).

tested on: beta-TC6 cells; test: Insulin HTRF assay (relative activity Ar) in beta-TC6 cells; assay type: cell-based, mouse; settings: Mus musculus, Beta-TC6, 4 h, insulin HTRF, supernatant of beta-TC6 cells, incubation with test compound at 37°C for 2, 3, 4h; read-out: Ar (relative activity)
How it was run: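 beta-TC6 cells (15k/well, seeded 24 or 48 h) washed, then exposed to compound in induction buffer (0.5% DMSO final) for 2, 3 or 4 h at 37°C.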

| SMILES | Emax [%] |
| --- | --- |
| CNc1nc2cnc(Nc3cc(OC)c(OC)c(OC)c3)cc2n1Cc1ccccc1 [Compound 526, 1-benzyl-N2-methyl-N6-(3,4,5-trimethoxyphenyl)imidazo[4,5-c]pyridine-2,6-diamine] | 50 to 100 |
| Cn1c(NCC2CC2)nc2cnc(-c3ccsc3)cc21 [Compound 596, N-(cyclopropylmethyl)-1-methyl-6-(3-thienyl)imidazo[4,5-c]pyridin-2-amine] | 50 to 100 |
| Cn1c(-c2ccccc2)cc2c(Nc3ccccn3)nccc21 [Compound 327, 1-methyl-2-phenyl-N-(2-pyridyl)pyrrolo[3,2-c]pyridin-4-amine] | 50 to 100 |
| COc1cccc(-c2nc3c(Nc4cccc(F)c4)nccc3[nH]2)c1F [Compound 481, 2-(2-fluoro-3-methoxy-phenyl)-N-(3-fluorophenyl)-1H-imidazo[4,5-c]pyridin-4-amine] | 30 to 50 |
| CNc1nc2cnc(-c3ccc(C(N)=O)cc3)cc2n1-c1ccccc1 [Compound 786, 4-[2-(methylamino)-1-phenyl-imidazo[4,5-c]pyridin-6-yl]benzamide] | 0 to 30 |
| CN1CCN(c2ccc(Nc3cc4[nH]c(-c5ccccc5)cc4cn3)cc2)CC1 [Compound 177, N-[4-(4-methylpiperazin-1-yl)phenyl]-2-phenyl-1H-pyrrolo[3,2-c]pyridin-6-amine] | 50 to 100 |
| CNc1nc2cnc(Nc3ccc(NC(C)=O)cc3)cc2n1-c1cccc(C(F)(F)F)c1 [Compound 540, N-[4-[[2-(methylamino)-1-[3-(trifluoromethyl)phenyl]imidazo[4,5-c]pyridin-6-yl]amino]phenyl]acetamide] | 30 to 50 |
| CNc1nc2cnc(Nc3cc(OC)c(OC)c(OC)c3)cc2n1Cc1ccco1 [Compound 519, 1-(2-furylmethyl)-N2-methyl-N6-(3,4,5-trimethoxyphenyl)imidazo[4,5-c]pyridine-2,6-diamine] | 50 to 100 |
| CN(C)C(=O)c1ccc(-c2cc3cnc(Nc4cccc(O)c4)cc3[nH]2)cc1 [Compound 31, 4-[6-(3-hydroxyanilino)-1H-pyrrolo[3,2-c]pyridin-2-yl]-N,N-dimethyl-benzamide] | > 100 |
| COc1ccccc1-c1cc2c(Nc3ccncc3)nccc2[nH]1 [Compound 295, 2-(2-methoxyphenyl)-N-(4-pyridyl)-1H-pyrrolo[3,2-c]pyridin-4-amine] | 50 to 100 |
| COc1cccc(-c2nc3c(Nc4cccc(O)c4)nccc3[nH]2)c1 [Compound 374, 3-[[2-(3-methoxyphenyl)-1H-imidazo[4,5-c]pyridin-4-yl]amino]phenol] | 50 to 100 |
| CN(C)C(=O)c1ccc(-c2cc3c(Nc4ccc(Oc5ccccc5)cc4)nccc3n2C)cc1 [Compound 217, N,N-dimethyl-4-[1-methyl-4-(4-phenoxyanilino)pyrrolo[3,2-c]pyridin-2-yl]benzamide] | 0 to 30 |
| COc1ccc(-c2cc3c(cn2)nc(NCc2ccccc2)n3C)cc1 [Compound 839, N-benzyl-6-(4-methoxyphenyl)-1-methyl-imidazo[4,5-c]pyridin-2-amine] | 30 to 50 |
| COc1cc(OC)cc(-c2cc3c(Nc4ccncc4)nccc3[nH]2)c1 [Compound 291, 2-(3,5-dimethoxyphenyl)-N-(4-pyridyl)-1H-pyrrolo[3,2-c]pyridin-4-amine] | 50 to 100 |
| CNc1nc2cnc(-c3ccc(O)c(OC)c3)cc2n1Cc1ccc(OC)c(OC)c1 [Compound 879, 4-[1-[(3,4-dimethoxyphenyl)methyl]-2-(methylamino)imidazo[4,5-c]pyridin-6-yl]-2-methoxy-phenol] | 30 to 50 |
| CN(C)C(=O)c1ccc(Nc2cc3c(cn2)nc(-c2cccc(F)c2)n3C)cc1 [Compound 715, 4-[[2-(3-fluorophenyl)-1-methyl-imidazo[4,5-c]pyridin-6-yl]amino]-N,N-dimethyl-benzamide] | 30 to 50 |
| COc1cc(Nc2nc3cnc(-c4ccccc4)cc3n2C)cc(OC)c1OC [Compound 588, 1-methyl-6-phenyl-N-(3,4,5-trimethoxyphenyl)imidazo[4,5-c]pyridin-2-amine] | 30 to 50 |
| Cn1cc(-c2cc3cnc(Nc4cccc(O)c4)cc3n2C)cn1 [Compound 144, 3-[[1-methyl-2-(1-methylpyrazol-4-yl)pyrrolo[3,2-c]pyridin-6-yl]amino]phenol] | > 100 |
| Clc1ccccc1-c1nc2c(NCCc3ccncc3)nccc2[nH]1 [Compound 459, 2-(2-chlorophenyl)-N-[2-(4-pyridyl)ethyl]-1H-imidazo[4,5-c]pyridin-4-amine] | 0 to 30 |
| Fc1cccc(-c2cc3c(N4CCOCC4)nccc3[nH]2)c1 [Compound 187, 4-[2-(3-fluorophenyl)-1H-pyrrolo[3,2-c]pyridin-4-yl]morpholine] | 30 to 50 |
| COc1cncc(-c2cc3[nH]c(NCC4CCCO4)nc3cn2)c1 (stereo not shown) [Compound 881, 6-(5-methoxy-3-pyridyl)-N-(tetrahydrofuran-2-ylmethyl)-1H-imidazo[4,5-c]pyridin-2-amine] | 0 to 30 |
| COc1ccc(Nc2cc3c(cn2)cc(-c2cccc(N(C)C(C)=O)c2)n3C)cc1OC [Compound 160, N-[3-[6-(3,4-dimethoxyanilino)-1-methyl-pyrrolo[3,2-c]pyridin-2-yl]phenyl]-N-methyl-acetamide] | 50 to 100 |

| SMILES | Emax [%] |
| --- | --- |
| CS(=O)(=O)c1cccc(Nc2nccc3[nH]c(-c4ccsc4)cc23)c1 [Compound 262, N-(3-methylsulfonylphenyl)-2-(3-thienyl)-1H-pyrrolo[3,2-c]pyridin-4-amine] | 50 to 100 |
| COCCCNc1nccc2[nH]c(-c3ccc(OC)cc3)nc12 [Compound 401, 2-(4-methoxyphenyl)-N-(3-methoxypropyl)-1H-imidazo[4,5-c]pyridin-4-amine] | 30 to 50 |
| Fc1cccc(-c2cc3cnc(N4CCOCC4)cc3[nH]2)c1 [Compound 12, 4-[2-(3-fluorophenyl)-1H-pyrrolo[3,2-c]pyridin-6-yl]morpholine] | > 100 |
| COc1ccc(Nc2nccc3[nH]c(-c4ccncc4)nc23)cc1 [Compound 427, N-(4-methoxyphenyl)-2-(4-pyridyl)-1H-imidazo[4,5-c]pyridin-4-amine] | 50 to 100 |
| Clc1ccc(CNc2nccc3[nH]c(-c4ccncc4)nc23)cc1 [Compound 433, N-[(4-chlorophenyl)methyl]-2-(4-pyridyl)-1H-imidazo[4,5-c]pyridin-4-amine] | 30 to 50 |
| Cn1c(-c2cccc(F)c2)cc2cnc(Nc3ccc(O)cc3)cc21 [Compound 17, 4-[[2-(3-fluorophenyl)-1-methyl-pyrrolo[3,2-c]pyridin-6-yl]amino]phenol] | 50 to 100 |
| CC(=O)Nc1cccc(Nc2nccc3[nH]c(-c4cccc(F)c4)cc23)c1 [Compound 206, N-[3-[[2-(3-fluorophenyl)-1H-pyrrolo[3,2-c]pyridin-4-yl]amino]phenyl]acetamide] | 50 to 100 |
| COc1ccc(-c2nc3c(N4CCOCC4)nccc3[nH]2)cc1 [Compound 399, 4-[2-(4-methoxyphenyl)-1H-imidazo[4,5-c]pyridin-4-yl]morpholine] | 30 to 50 |
| Fc1cccc(Nc2cc3[nH]c(-c4cn[nH]c4)cc3cn2)c1 [Compound 119, N-(3-fluorophenyl)-2-(1H-pyrazol-4-yl)-1H-pyrrolo[3,2-c]pyridin-6-amine] | 50 to 100 |
| Cn1c(-c2ccsc2)cc2c(Nc3ccc(S(C)(=O)=O)cc3)nccc21 [Compound 289, 1-methyl-N-(4-methylsulfonylphenyl)-2-(3-thienyl)pyrrolo[3,2-c]pyridin-4-amine] | 30 to 50 |
| CCN(CC)CCNC(=O)c1ccc(Nc2nccc3[nH]c(-c4ccncc4)nc23)cc1 [Compound 425, N-(2-diethylaminoethyl)-4-[[2-(4-pyridyl)-1H-imidazo[4,5-c]pyridin-4-yl]amino]benzamide] | 50 to 100 |
| COc1ccc(-c2nc3c(Nc4cccc(O)c4)nccc3[nH]2)cc1OC [Compound 352, 3-[[2-(3,4-dimethoxyphenyl)-1H-imidazo[4,5-c]pyridin-4-yl]amino]phenol] | > 100 |
| CNc1nc2cnc(Nc3ccc(OC)cc3OC)cc2n1C [Compound 610, N6-(2,4-dimethoxyphenyl)-N2,1-dimethyl-imidazo[4,5-c]pyridine-2,6-diamine] | 50 to 100 |
| COC(=O)c1ccc(Nc2cc3[nH]c(-c4ccccn4)cc3cn2)cc1 [Compound 67, methyl 4-[[2-(2-pyridyl)-1H-pyrrolo[3,2-c]pyridin-6-yl]amino]benzoate] | 30 to 50 |
| COc1ccc(Nc2cc3c(cn2)ncn3Cc2ccco2)cc1 [Compound 693, 1-(2-furylmethyl)-N-(4-methoxyphenyl)imidazo[4,5-c]pyridin-6-amine] | 50 to 100 |
| COc1ccc(Nc2cc3c(cn2)cc(-c2cccc(N(C)C(C)=O)c2)n3C)cc1 [Compound 166, N-[3-[6-(4-methoxyanilino)-1-methyl-pyrrolo[3,2-c]pyridin-2-yl]phenyl]-N-methyl-acetamide] | 30 to 50 |
| COc1cc(Nc2nccc3[nH]c(-c4ccc(O)cc4)nc23)cc(OC)c1OC [Compound 364, 4-[4-(3,4,5-trimethoxyanilino)-1H-imidazo[4,5-c]pyridin-2-yl]phenol] | 50 to 100 |
| COc1cc(Nc2cc3c(cn2)nc(NCC2CCCO2)n3C)cc(OC)c1OC (stereo not shown) [Compound 641, 1-methyl-N2-(tetrahydrofuran-2-ylmethyl)-N6-(3,4,5-trimethoxyphenyl)imidazo[4,5-c]pyridine-2,6-diamine] | 30 to 50 |
| Cn1c(Nc2cccc(C(F)(F)F)c2)nc2cnc(-c3ccc(N)nc3)cc21 [Compound 590, 6-(6-amino-3-pyridyl)-1-methyl-N-[3-(trifluoromethyl)phenyl]imidazo[4,5-c]pyridin-2-amine] | 50 to 100 |
| c1ccc(-c2nc3cnccc3[nH]2)nc1 [Compound 742, 2-(2-pyridyl)-1H-imidazo[4,5-c]pyridine] | 30 to 50 |
| COc1ccc(Nc2nccc3[nH]c(-c4cccc(C(F)(F)F)c4)nc23)cc1 [Compound 356, N-(4-methoxyphenyl)-2-[3-(trifluoromethyl)phenyl]-1H-imidazo[4,5-c]pyridin-4-amine] | > 100 |
